These molecules were tested on moLRP (marine origin Lactonase Related Protein), putative AHL lactonase of the PTE-Like-Lactonase (PLL) family from marine metagenomes, recombinant with 6×His … (assay: AHL lactonase activity of purified moLRP (hydrolysis of N-acyl homoserine lactones, Michaelis-Menten kinetics, pH indicator cresol purple)). Settings: hydrolysis of AHLs by moLRP; Table 1; FIG. 3 (C4-HSL): E0=0.4 μM, 27° C.; error = standard deviation, at least three independent measurements.
Assay type: biochemical, marine metagenome (Tara Oceans); MAG of phylum Chloroflexi

Question: `CCCCCC(=O)CC(=O)NC1CCOC1=O` (racemic) [3-Oxo C8-HSL, N-(3-oxooctanoyl)-DL-homoserine lactone] was tested. Which Km did it give?
Answer: 74.8 ± 11 µM

Question: And the kcat?
Answer: 0.519 ± 0.02 s⁻¹

Question: Which results are given for `CCCC(=O)CC(=O)N[C@H]1CCOC1=O` [3-Oxo C6-HSL, N-(3-oxohexanoyl)-L-homoserine lactone]?
Answer: Km: 150 ± 13 µM; kcat: 1.30 ± 0.10 s⁻¹

Question: For `CCCC(=O)N[C@H]1CCOC1=O` [C4-HSL, N-butyryl-L-homoserine lactone], which Km is on record?
Answer: 96.5 ± 15.3 µM

Question: And the kcat?
Answer: 1.85 ± 0.11 s⁻¹

Question: For `CCCCCCC(=O)N[C@H]1CCOC1=O` [C7-HSL, N-heptanoyl-L-homoserine lactone], which Km is on record?
Answer: 112 ± 19 µM

Question: What about the kcat of the same molecule?
Answer: 0.230 ± 0.02 s⁻¹
